Values quoted from earlier work in paper PMC4226840, “An open-label study to determine the maximum tolerated dose of the multitargeted tyrosine kinase inhibitor CEP-11981 in patients with advanced cancer” (Investigational New Drugs, 2014).
pIC50: −log10 of the molar value.

How the values were obtained:
VEGFR-2 = conditions: HUVEC; cited from earlier work
[1] = test system: treatment refractory metastatic colorectal cancer; set-up: method as in PMID 23177514; conditions: phase III, monotherapy, versus 5.0 months, P = 0.0052; cited from earlier work

Structure (SMILES) | pIC50 (VEGFR-2) | Overall survival [1] [months]
CNC(=O)c1cc(Oc2ccc(NC(=O)Nc3ccc(Cl)c(C(F)(F)F)c3)c(F)c2)ccn1 [regorafenib] |  | 6.4
